Measurements: patent US12351819B2, “Method for removing undifferentiated pluripotent stem cells” (priority 2017, dated 2025)

What was measured:
hPSCs teratoma formation = settings: background, literature; cited from earlier work
hESCs (H9) = settings: for LDH assay positive, hESCs: Table 1; for cytotoxic effect (LDH release) in hESCs: 2.5 μM, 24 hours, vs DMSO
Experimental: The hESC line H9 was purchased from WiCells (Madison, WI, USA)^27. Another hESC line, HUES6, was kindly provided by Dr. Douglas A. Melton (Harvard University, Boston, MA, USA)^28. Cells were maintained on the feeder cells and cultured in Dulbecco's modified Eagle's medium (DMEM)/F12 supplemented with 20% knockout serum replacement, 2 mM L-glutamine, 1% nonessential amino acids, 4 ng/mL human bFGF, and 0.1 mM 2-mercaptoethanol. For the feeder cells culture, C57BL/6 mouse embryonic fibroblasts (MEF) were cultured in the DMEM with 10% FBS and treated cells with 0.01 mg/ml mitomycin C 2-6 hours for inactivation. For the feeder-free culture, hESCs were seeded on the Matrigel Matrix (BD Biosciences, San Jose, CA, USA) coated culture plates and maintained by conditioned medium of MEF (C57BL/6). hBMMSCs were cultured in mesenPRO RS™ kit (Life Technologies, Camarillo, CA, USA). All cells were cultured in a humidified atmosphere containing 5% CO2 at 37° C.
(§1) The supernatants of cells treated with digoxin […], lanatoside C 2.5 μm, or DMSO solvent control for 24 hours were harvested. The released LDH was measured using CytoTox 96 […] assay according to the manufacture's instruction (Promega, Southampton, UK). The supernatants and reagents were incubated at room temperature for 20 minutes and then the reaction was stopped by Stop Solution. The absorbance at 490 nm was measured using a plate-reading spectrophotometer (Benchmark Plus Microplate Spectrophotometer System, BIO-RAD, CA, USA).

hiPSCs = settings: Table 1; hiPSCs
Experimental: as §1
hiPSC-derived endothelial cells were prepared according in a previous report^34. The hiPSCs were maintained in mTeSR 1 medium ([…] Technologies, Vancouver, Canada) on VTN-N coated plates (Thermo, Wilmington, DE, USA). First, for the stepwise induction of differentiation, we performed a mesoderm induction of hiPSCs seeded in mesoderm induction medium for 48 hours (basal medium with […], […], and 2 ng/ml of Activin A; basal medium was composed of 12 g/L of DMEM/F-12, 3.56 g/L of HEPES, 1.742 g/L of sodium bicarbonate, 14 μg/L of sodium selenite, 10.7 mg/L of recombinant transferrin, 19.4 mg/L of recombinant insulin, and 64 mg/L of L-Ascorbic acid 2-phosphate sesquimagnesium salt hydrate). Second, for the mesoderm to endothelium transition, mesoderm cells were reseeded in vasculogenic medium (basal medium with 2 mg/ml of PVA plus 20 ng/ml of hVEGF-A) for an additional 72 hours. All differentiated cells were plated on VTN pre-coated culture plate dishes. The endothelial cells were analyzed on day 5 by flow cytometry staining with the CD31 (PECAM1, ThermoFisher Scientific, Wilmington, DE, USA) and CD144 (CDH5, ThermoFisher Scientific) antibodies.

[1] = tested on: hESC-hepatocyte endoderm cells; assay: LDH cytotoxicity assay in hESC-derived hepatocyte endoderm; assay type: cell-based, human; settings: Table 1
Experimental: This protocol followed a method previously published in Nature Protocols^36. The hESCs were detached by 0.5 mM EDTA (Life Technologies, Camarillo, C, USA), seeded on VTN-N coated culture plates (Corning) and maintained for 48 hours in mTeSR 1 medium. Then, the medium was refreshed daily for all following steps. On days 1-2, the medium was replaced with fresh CDM-PVA (consisting of 0.5 g of PVA (Sigma) dissolved in 250 ml of IMDM/F-12, GlutaMAX (Invitrogen), 250 ml of IMDM (Invitrogen), 5 ml of chemically defined lipid concentrate (Invitrogen), 20 of thioglycerol 97% (Sigma), 350 of insulin (10 mg/ml; Roche), 250 of transferrin (30 mg/ml; Roche) plus Activin A (100 ng/ml; R&D), bFGF (80 ng/ml; R&D), BMP4 (10 ng/ml; R&D), and […] of LY-294002 (Promega). On day 3, the cells were differentiated in RPMI Medium supplemented with Activin A (100 ng/ml) and bFGF (80 ng/ml). On days 4-6, the cells were expanded in RPMI medium supplemented with Activin A (50 ng/ml). On day 7, the cells were passaged and re-plated 105,000 cells/cm^2 cells in VTN-N coated culture plates in RPMI containing Activin A (50 ng/ml) and Y-27632 2HCl (10 μM Selleck-chem, Houston, TX, USA and Munich, Germany). Then, the cells were maintained in RPMI+Activin A (50 ng/ml) on days 8-11. The cells were differentiated into the hepatocyte endoderm and analyzed following the drug treatments. The expression of alpha-fetoprotein (A0008, Dako, Santa Clara, CA, USA) was analyzed in the hepatocyte endoderm via immunofluorescence staining.

hESCs = assay: Alamar blue assay, hESCs; assay type: cell-based, human; settings: FIG. 12
Experimental: Alamar blue assay measured the relative cell number. In the cells, we added 1/10 of Alamar Blue Viability Assay reagent to the total volume of the mixture (Biotium; Fremont, CA, USA). The cells were incubated overnight at 37° C. The resulted were quantified by the measurement of optical density (OD) absorbance values at 570 nm and 600 nm, and the relative cell number was calculated.

hPSCs = settings: background, literature; cited from earlier work
H9 hESC-MSCs = settings: 2.5 μM, 24 hours
Experimental: as §1
According to the report from Dr. Xu and colleagues^30, hESCs were cultured with 10 ng/ml BMP4 and 1 μM of A8301 for 5 days. Next, the cells were passaged on the gelatin-coated plate and the culture medium was switched to MSC culture medium [Minimum Essential Medium Eagle Alpha Modification (αMEM) medium supplemented with 20% fetal bovine serum (FBS), 1-glutamine (Gluta-MAX), 1× nonessential amino acids]. Cells were expanded within passage 5, and CD73^+ (11-0793, ThermoFisher Scientific) and CD105^+ (12-1057, ThermoFisher Scientific) double positive cells were sorted.
hESC-derived MSCs were trypsinized and washed with PBS. Then cells were incubated with anti-human CD73 FITC (ThermoFisher Scientific) and anti-human CD105 PE (ThermoFisher Scientific) for 15 minutes at 4° C. Cells were washed cells with PBS for three times. CD73^+/CD105^+ cells were sorted with the cell sorter (BD FACSAria II, BD Biosciences). Sorted cells were maintained in MSC culture medium.

PERK/AT4/DDIT3 pathway = settings: through the PERK/AT4/DDIT3 pathway; literature; cited from earlier work

Structure (SMILES)	teratoma formation in hPSCs (hPSCs teratoma formation)	LDH assay positive, hESCs (hESCs (H9))	LDH assay positive, hiPSCs (hiPSCs)	LDH assay positive, hepatocyte endoderm cells [1]	cell death in hESCs (Alamar blue, relative cell number) (hESCs)	selective cell death (hPSCs)	cytotoxic effect (LDH release) in hESCs (hESCs (H9))	cytotoxicity (LDH release) in H9 hESC-MSCs (H9 hESC-MSCs)	ER stress (PERK/AT4/DDIT3 pathway)
O=C(NNc1ccccc1)c1ccncc1 [PluriSin #1]	prevented teratoma formation								
C[C@H]1O[C@@H](O[C@H]2[C@@H](O)C[C@H](O[C@H]3[C@@H](O)C[C@H](O[C@H]4CC[C@@]5(C)[C@H](CC[C@@H]6[C@@H]5CC[C@]5(C)[C@@H](C7=CC(=O)OC7)CC[C@]65O)C4)O[C@@H]3C)O[C@@H]2C)C[C@H](O)[C@@H]1O [Digitoxin, digitoxin]		+++ (more than 70% positive cells)	+++ (more than 70% positive cells)	−/+ (10% positive cells)	dose dependent manner				
COCCn1c2c([n+](Cc3cnccn3)c1C)C(=O)c1ccccc1C2=O [YM155]	efficiently inhibited teratoma formation					induced selective cell death			
C[C@]12CC[C@H](O)C[C@H]1CC[C@@H]1[C@@H]2CC[C@]2(C)[C@@H](C3=CC(=O)OC3)CC[C@]12O [Digitoxigenin, digitoxigenin]		+++ (more than 70% positive cells)	+++ (more than 70% positive cells)	−/+ (10% positive cells)	dose dependent manner				
C[C@]12CC[C@H](O)C[C@H]1CC[C@@H]1[C@@H]2CC[C@]2(C)[C@@H](c3ccc(=O)oc3)CC[C@]12O [Bufalin, bufalin]		+++ (more than 70% positive cells)	+++ (more than 70% positive cells)	−/+ (10% positive cells)			induced cytotoxicity	do not induce cytotoxicity	
O=c1c(O)c(-c2ccc(O)c(O)c2)oc2cc(O)cc(O)c12 [quercetin]	efficiently inhibited teratoma formation					induced selective cell death			
C[C@@H]1O[C@@H](O[C@@H]2C=C3CC[C@@H]4[C@H](CC[C@]5(C)[C@@H](c6ccc(=O)oc6)CC[C@]45O)[C@@]3(C)CC2)[C@H](O)[C@H](O)[C@H]1O [Proscillaridin A, proscillaridin A]		+++ (more than 70% positive cells)	+++ (more than 70% positive cells)	−/+ (10% positive cells)	dose dependent manner		induced cytotoxicity	do not induce cytotoxicity	
CCCCCCCCC(=O)NCc1ccccc1 [JC011]									induced ER stress
C[C@@H]1O[C@@H](O[C@H]2C[C@@H](O)[C@]3(CO)[C@H]4[C@H](O)C[C@]5(C)[C@@H](C6=CC(=O)OC6)CC[C@]5(O)[C@@H]4CC[C@]3(O)C2)[C@H](O)[C@H](O)[C@H]1O [Ouabain, ouabain]		+++ (more than 70% positive cells)	+++ (more than 70% positive cells)	−/+ (10% positive cells)	dose dependent manner				
